Read-outs that look alike come from different tables or passages of the source. *1 amine or outer side, *2 acyl side, *3 side chain or, on linkers, in order; H or OH if unused. Where a SMILES comes first, the peptide text is derived from it. Bridges are numbered along the chain shown (N, C = ends). [ ]: non-standard residue; d: D form. Phenylene(1,4-NHCOCH2)2 = O=C(C[*:1])Nc1ccc(NC(=O)C[*:2])cc1
Legend:
[1] = target: T1, CHIP23-303 recombinant protein (Homo sapiens, UniProt Q9UNE7); assay: competition fluorescence polarization against FAM-Hsp70 peptide loaded CHIP; type: binding; conditions: SI table 1.27.1, read-out: Measured IC50
T1 construct: 6xHis (N, cleaved yes); TEV cleavage site (N, cleaved yes); made in house; host or cells: E. coli BL21 CodonPlus (pET21b-derived vector)
T1 sequence (Q9UNE7 23-303): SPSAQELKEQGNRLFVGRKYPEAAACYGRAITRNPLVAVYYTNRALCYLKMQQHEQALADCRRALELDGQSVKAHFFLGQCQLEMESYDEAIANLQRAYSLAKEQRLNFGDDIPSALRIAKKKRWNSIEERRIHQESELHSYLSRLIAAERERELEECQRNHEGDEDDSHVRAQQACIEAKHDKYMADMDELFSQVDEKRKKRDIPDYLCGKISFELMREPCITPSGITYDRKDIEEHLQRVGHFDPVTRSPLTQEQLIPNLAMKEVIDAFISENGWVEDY
Description: Not limited to known D-proteins, we nominated an original target for MIPD screening, CHIP, and identified three macrocyclic D-peptide binders. CHIP is a member of the RING/U-Box family of E3 ligases that direct the ubiquitination of chaperones[66] and their bound client proteins[67],[68] (Fig. 6A). This interaction is driven by a common (I/M)EEVD motif present on the C-terminus of heat shock protein 70 (Hsp70) and Hsp90 family members that is recognized by the TPR domain of CHIP[69] (Fig. 6B). Degradation driven by CHIP is active in a diverse range of cellular processes from monitoring protein quality control[68] to mediating interferon-γ signaling. Masking of the CHIP-TPR domain can in theory modulate these signaling pathways and as a result is actively being pursued[69],[71]. In addition, CHIP belongs to the same protein family as MDM2 (E3 ubiquitin ligases) and has potential therapeutic relevance by being implicated in neurological disease. For these reasons, we hypothesized that this domain would be a valuable target for D-peptide discovery, and successfully isolated the protein in its mirror image form for MIPD screening. […] All three clusters feature conserved terminal residues with carboxylate functionalities (dD3 in CHIP.C1, dD1/dE2 in CHIP.C2, and dD12 in CHIP.C3), consistent with the conserved terminal aspartic acid residues found on CHIP substrates. Hydrophobic residues are retained in the i,i + 4/5 positions relative to the anchoring aspartic acid residue: dW6 in CHIP.C1, dW6 in CHIP.C2, and dA8 in CHIP.C3, presumably for interaction with the hydrophobic TPR groove.
Supplementary Figure 14. D-H109 SPR to Recombinant MDM2. Sensorgrams and steady state affinity plots of D-H109 binding to recombinant MDM2 are shown.
1.27. CHIP Peptide Binders from Phage Display
1.27.1. CHIP Binder Sequences
Cluster ID Sequence Measured IC50
CHIP.C1 H201ǂ Ac-pwedcawfawacyni-NH2 470 nM
CHIP.C2 H203ǂ Ac-phemcywadaycrys-NH2 550 nM
CHIP.C2 H204ǂ Ac-pldlcywaslhcivs-NH2 770 nM
Listed sequences were cyclized between C5 and C12 with N,N'-(1,4-phenylene)bis(2-bromoacetamide) . ǂSequences were selected for co-crystallization with CHIP.
1.27.2. CHIP Binder FP Validation
For the competition FP of CHIP, Helicons at 10 mM in DMSO were serially diluted 1:3 in DMSO for a total of 11 concentrations using a Mosquito LV (SPT Labtech), then diluted 1000-fold in buffer (1 x HBS-P+, Cytiva) in duplicate by the Mosquito LV (SPT Labtech) into a black polystyrene 384-well plate (Corning) (11-point three-fold peptide dilution series with top concentration = 10 μM). […]
HSP70). The plate was incubated and protected from light for 1 hour at room temperature prior to reading. Reads were performed on a CLARIOstar plate reader (BMG Labtech) with excitation at 485 nm, emission at 525 nm, and cutoff at 504 nm. […]

[2] = target: T2, recombinant MDM2 (biotinylated MDM2[25-109]) (Homo sapiens, UniProt Q00987); assay: SPR of macrocyclic D-peptides to recombinant MDM2; type: binding; conditions: SI table 1.26.1, Biacore 8K, 25 °C, 1x HBS-P+ with 1% DMSO, top concentration 5 μM, N = 1, * = listed KD value is beyond tested concentrations, read-out: Measured KD
T2 construct: MDM2 (residues 25-109); made in house
T2 sequence (Q00987 25-109): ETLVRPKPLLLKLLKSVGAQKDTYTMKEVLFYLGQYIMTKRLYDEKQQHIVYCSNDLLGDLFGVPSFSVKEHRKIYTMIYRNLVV
Description: We identified three binding clusters selective for D-MDM2 with phage display screening (Fig. 4A and SI Section 1.26). In brief, immobilized D-MDM2 from AFPS was screened against an unbiased phage library of 10^8 members displaying macrocyclic α-helical peptides. We sequenced phage particles that remained bound to the targets after washing using next-generation sequencing. Comparisons of sequencing reads to a spiked-in internal reference allowed for a semi-quantitative read-out of binding affinity as a function of protein bait concentration. […] Consistent with previously described α-helical peptide binders to MDM2[64],[65], all three clusters contain anchoring N-terminal tryptophan residues (dW2 in MDM2.C1, dW1 in MDM2.C2, and dW1 in MDM2.C3), and show conserved hydrophobic residues on the same α-helical face as the tryptophan residue (i,i + 4/5 and i,i + 8/9 relative to dW on each cluster). To validate the specificity of each binding cluster, we synthesized representative binding peptides in the D-form (Fig. 4B, D-H101 from MDM2.C1, D-H102 from MDM2.C2, and D-H103 from MDM2.C3) and measured their affinity to recombinant MDM2 with SPR. We observed binding constants of 5.5 μM, 2.4 μM, and 0.88 μM, respectively (Fig. 4C and Supplementary Figs. 6–8).
1.24. YAP1-WW1-WW2 Protein Expression […]
Cluster ID Sequence Measured KD […]

[3] = 400 nM CHIP23-303, 20 nM probe 5FAM-bAla-[…], 1 hour room temperature, duplicate

Row | IC50 [1, 3] [nM] | SMILES | further results
1 | 770 | CC[C@@H](C)[C@@H](NC(=O)[C@H]1CSCC(=O)Nc2ccc(cc2)NC(=O)CSC[C@@H](NC(=O)[C@@H](CC(C)C)NC(=O)[C@@H](CC(=O)O)NC(=O)[C@@H](CC(C)C)NC(=O)[C@H]2CCCN2C(C)=O)C(=O)N[C@H](Cc2ccc(O)cc2)C(=O)N[C@H](Cc2c[nH]c3ccccc23)C(=O)N[C@H](C)C(=O)N[C@H](CO)C(=O)N[C@H](CC(C)C)C(=O)N[C@H](Cc2c[nH]cn2)C(=O)N1)C(=O)N[C@@H](C(=O)N[C@H](CO)C(N)=O)C(C)C [H204] (Ac-[dP][dL][dD][dL][dC][dY][dW][dA][dS][dL][dH][dC][dI][dV][dS]-NH2; linker 5-12 via Phenylene(1,4-NHCOCH2)2) | 
2 | 470 | CC[C@@H](C)[C@@H](NC(=O)[C@@H](CC(N)=O)NC(=O)[C@@H](Cc1ccc(O)cc1)NC(=O)[C@H]1CSCC(=O)Nc2ccc(cc2)NC(=O)CSC[C@@H](NC(=O)[C@@H](CC(=O)O)NC(=O)[C@@H](CCC(=O)O)NC(=O)[C@@H](Cc2c[nH]c3ccccc23)NC(=O)[C@H]2CCCN2C(C)=O)C(=O)N[C@H](C)C(=O)N[C@H](Cc2c[nH]c3ccccc23)C(=O)N[C@H](Cc2ccccc2)C(=O)N[C@H](C)C(=O)N[C@H](Cc2c[nH]c3ccccc23)C(=O)N[C@H](C)C(=O)N1)C(N)=O [D-H201] (Ac-[dP][dW][dE][dD][dC][dA][dW][dF][dA][dW][dA][dC][dY][dN][dI]-NH2; linker 5-12 via Phenylene(1,4-NHCOCH2)2) | 
3 | 550 | CSCC[C@@H](NC(=O)[C@@H](CCC(=O)O)NC(=O)[C@@H](Cc1c[nH]cn1)NC(=O)[C@H]1CCCN1C(C)=O)C(=O)N[C@@H]1CSCC(=O)Nc2ccc(cc2)NC(=O)CSC[C@H](C(=O)N[C@H](CCCNC(=N)N)C(=O)N[C@H](Cc2ccc(O)cc2)C(=O)N[C@H](CO)C(N)=O)NC(=O)[C@@H](Cc2ccc(O)cc2)NC(=O)[C@@H](C)NC(=O)[C@@H](CC(=O)O)NC(=O)[C@@H](C)NC(=O)[C@@H](Cc2c[nH]c3ccccc23)NC(=O)[C@@H](Cc2ccc(O)cc2)NC1=O [D-H203] (Ac-[dP][dH][dE][dM][dC][dY][dW][dA][dD][dA][dY][dC][dR][dY][dS]-NH2; linker 5-12 via Phenylene(1,4-NHCOCH2)2) | 
4 |  | CC(=O)N1CCC[C@@H]1C(=O)N[C@H](Cc1c[nH]c2ccccc12)C(=O)N[C@H](Cc1c[nH]c2ccccc12)C(=O)N[C@H](CCC(=O)O)C(=O)N[C@@H]1CSCC(=O)Nc2ccc(cc2)NC(=O)CSC[C@H](C(=O)N[C@H](CC(=O)O)C(=O)N[C@H](Cc2ccccc2)C(=O)N[C@H](CCCNC(=N)N)C(N)=O)NC(=O)[C@@H](CC(=O)O)NC(=O)[C@@H](CC(=O)O)NC(=O)[C@@H](C)NC(=O)[C@@H](CCC(N)=O)NC(=O)[C@@H](CO)NC(=O)[C@@H](CC(C)C)NC1=O [D-H202] (Ac-[dP][dW][dW][dE][dC][dL][dS][dQ][dA][dD][dD][dC][dD][dF][dR]-NH2; linker 5-12 via Phenylene(1,4-NHCOCH2)2) | IC50 ([1]; unit as printed in the cell of H202, same competition FP): 1230 nM
5 |  | CC(=O)N[C@H](CC(=O)O)C(=O)N1CCC[C@@H]1C(=O)N[C@H](C)C(=O)N[C@H](CO)C(=O)N[C@H](CCCNC(=N)N)C(=O)N[C@H](CC(N)=O)C(=O)N[C@@H]1CSCC(=O)Nc2ccc(cc2)NC(=O)CSC[C@H](C(=O)N[C@H](CCC(=O)O)C(=O)N[C@H](Cc2ccc(O)cc2)C(=O)N[C@H](Cc2c[nH]c3ccccc23)C(N)=O)NC(=O)[C@@H](CC(C)C)NC(=O)[C@@H](Cc2c[nH]cn2)NC(=O)[C@@H](C)NC(=O)[C@@H](C)NC(=O)[C@@H](Cc2c[nH]c3ccccc23)NC(=O)[C@@H](CCC(N)=O)NC1=O [H107] (Ac-[dD][dP][dA][dS][dR][dN][dC][dQ][dW][dA][dA][dH][dL][dC][dE][dY][dW]-NH2; linker 7-14 via Phenylene(1,4-NHCOCH2)2) | Kd [2]: 1100 nM
